Data from PubChem BioAssay (NCI).
Values joined by “and” are separate entries in the source; they are usually repeats but may differ in a detail not shown here. Equal entries are not always repeated.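 Where inhibition never reached the appropriate level, the endpoint shown equals the highest concentration tested. Otherwise, values were interpolated linearly from a five-concentration, 48-hour dose response in 96-well plates. GI50 is the concentration that inhibits growth by half. Definition used: TGI = concentration required for complete inhibition of growth.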

How the values were obtained:
Assay in all cases: inhibition of tumour cell growth, NCI panel, 48 h
RPMI-8226 leukemia = test system: RPMI-8226 leukemia
HS 578T breast = test system: HS 578T breast
CAKI-1 renal = test system: CAKI-1 renal
TK-10 renal = test system: TK-10 renal
HCT-15 colon = test system: HCT-15 colon
HT29 colon = test system: HT29 colon
COLO 205 colon = test system: COLO 205 colon
SW-620 colon = test system: SW-620 colon

SMILES | GI50 (RPMI-8226 leukemia) | TGI (RPMI-8226 leukemia) [µM] | GI50 (HS 578T breast) [µM] | TGI (HS 578T breast) [µM] | GI50 (CAKI-1 renal) | TGI (CAKI-1 renal) | GI50 (TK-10 renal) [µM] | TGI (TK-10 renal) [µM] | GI50 (HCT-15 colon) | TGI (HCT-15 colon) [µM] | GI50 (HT29 colon) [µM] | TGI (HT29 colon) [µM] | GI50 (COLO 205 colon) | TGI (COLO 205 colon) | GI50 (SW-620 colon) | TGI (SW-620 colon) [µM]
CCCN(CCC)c1ccc(/C=N/NC(=O)c2cccnc2)c(C)c1 | 19.4 µM | 68.7 | 13.9 | 48.2 | 19.2 µM | 58.7 µM | 16 | 38.5 | 11.9 µM | 47.8 | 8.54 | 25.2 | 14.5 µM | 27.6 µM | 14.8 µM | 35.7
CCOC(=O)c1ccc(N2NC(=O)/C(=C/c3ccc([N+](=O)[O-])o3)C2=O)cc1 | 30.1 µM | > 96.5 | > 45.6 | > 75.1 | 5.76 µM | 13.6 µM | 9.04 | 23.2 | 13.6 µM | 31.5 | 15.8 | 36.2 | 4.06 µM | 9.46 µM | 4.3 µM | 9.38
Cc1cccc2c(=O)c3c(sc12)c(NCCCNCCO)nc1ccccc13 | 1.81 µM | 3.81 | 1.63 | 3.62 | 1.31 µM | 2.67 µM |  |  | 1.51 µM | 2.96 | 1.57 | 3.2 | 1.61 µM | 3.24 µM | 1.43 µM | 2.99
CN1CCN(C)C1c1ccc(C2N(C)CCN2C)cc1 | 19.3 µM | 59.1 | 64 | > 100 | > 100 µM | > 100 µM | > 100 | > 100 | 77.7 µM | > 100 | 21.2 | 56.4 | 23 µM | 65.2 µM | 25 µM | > 100
COc1cc(-n2cc(-c3ccc(Cl)cc3)n(-c3ccccc3)c2=O)cc(OC)c1OC | 30.6 µM | > 100 | 25.6 | > 100 | 26.8 µM | > 89.9 µM | 35.5 | > 100 | 8.54 µM | > 100 | 16.6 | > 100 | 11.7 µM | 44.2 µM | 27.1 µM | > 100
ClCc1ccccc1Cn1cnc2nc(Cl)nc(Cl)c21 | 0.0318 µM | 0.272 | 0.331 | 1.22 | 7.16 µM | 18.5 µM | 13.5 | 29.8 | 0.197 µM | 0.434 | 0.412 | > 100 | 0.357 µM | > 100 µM | 0.266 µM | 0.682
O=C(COc1ccccc1)NNc1ccccc1 | 68.3 µM and 274 µM | > 300 | 98.3 | > 300 | 6.78 µM and 5.97 µM | > 80.2 µM and 182 µM | > 300 | > 300 | 8.88 µM and 12.3 µM | > 300 | 264 | > 300 | 17.6 µM and 11.9 µM | > 86.6 µM and 197 µM | 13.4 µM and 18.9 µM | > 300
